Laboratory results reported in US12441768B2, “Compositions and methods for treating endometriosis” (EndoMet Biosciences, Inc., priority 2018, dated 2025).
Where a SMILES comes first, the peptide text is derived from it. The star is where a group is joined. Bn = c1ccc(C*)cc1

Key:
β-catenin = target: T1, β-catenin (Homo sapiens, UniProt P35222); test: KD50 measurement using competitive fluorescence polarization (FP) with labelled TCF4; type: binding; settings: fluorescence polarization, β-catenin; for Kd: read-out: β-Cat FP KD
T1 sequence (P35222 1-781): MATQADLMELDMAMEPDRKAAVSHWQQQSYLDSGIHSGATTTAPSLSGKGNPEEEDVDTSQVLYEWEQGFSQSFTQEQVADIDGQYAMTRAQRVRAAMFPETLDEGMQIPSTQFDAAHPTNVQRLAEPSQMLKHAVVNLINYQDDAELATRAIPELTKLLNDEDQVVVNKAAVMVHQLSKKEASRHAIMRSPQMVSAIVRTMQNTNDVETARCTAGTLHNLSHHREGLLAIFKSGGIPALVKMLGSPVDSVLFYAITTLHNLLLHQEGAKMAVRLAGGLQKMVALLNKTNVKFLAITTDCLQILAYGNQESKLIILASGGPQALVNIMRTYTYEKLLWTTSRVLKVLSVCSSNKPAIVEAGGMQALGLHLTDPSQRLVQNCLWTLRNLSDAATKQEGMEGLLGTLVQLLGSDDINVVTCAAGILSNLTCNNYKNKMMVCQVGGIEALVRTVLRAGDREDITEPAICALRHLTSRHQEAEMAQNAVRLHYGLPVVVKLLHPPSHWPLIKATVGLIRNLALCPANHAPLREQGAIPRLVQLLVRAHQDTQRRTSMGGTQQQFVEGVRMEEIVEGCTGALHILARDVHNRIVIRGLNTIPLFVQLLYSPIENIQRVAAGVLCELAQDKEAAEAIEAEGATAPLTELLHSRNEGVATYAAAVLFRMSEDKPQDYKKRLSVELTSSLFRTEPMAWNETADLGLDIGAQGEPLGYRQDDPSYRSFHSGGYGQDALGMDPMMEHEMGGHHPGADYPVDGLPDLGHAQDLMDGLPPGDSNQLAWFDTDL
Outline: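 Each compound competes against labelled TCF4 (5 nM) for 100 nM β-catenin at room temperature, tested over 10 nM to 30 uM. Signal: polarization at 470/520 nm excitation/emission. Three repeat experiments were performed.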

[1] = target: Wnt-responsive promoter (TCF/LEF); test: Wnt-dependent luciferase reporter assay; type: cell-based, murine
Outline: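 Murine 3T3 fibroblasts carrying a TCF/LEF-driven luciferase reporter, stimulated with Wnt3a in the presence of increasing peptide concentrations or vehicle. Luminescence inhibition gave EC50 values in uM.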

[2] = % Viability non-Wnt responsive cells

Compound | Kd (β-catenin) [µM] | EC50 [1] [µM] | viability [2] [%] | β-Cat FP Hill slope (β-catenin)
CC[C@H](C)[C@H](NC(=O)[C@H](CC(C)C)NC(=O)[C@H](Cc1ccccc1)NC(=O)[C@H](Cc1c[nH]c2ccccc12)NC(=O)[C@H](Cc1ccccc1)NC(=O)[C@H](CCCNC(=N)N)NC(=O)[C@H](CO)NC(=O)[C@@H](N)CCSC)C(=O)N[C@@H](CO)C(=O)N[C@@H](Cc1ccccc1)C(=O)N[C@@H](Cc1c[nH]c2ccccc12)C(N)=O [compound 77] (H-MSRFWFLISFW-NH2) | > 30 | > 30 | 107 | –
CC[C@H](C)[C@@H]1NC(=O)[C@H](CC(C)C)NC(=O)[C@H]([C@@H](C)CC)NC(=O)[C@H](Cc2c[nH]c3ccccc23)NC(=O)[C@@H](NC(C)=O)CCCCNC(=O)CC[C@@H](C(=O)O)NC(=O)[C@H](Cc2c[nH]c3ccccc23)NC(=O)[C@H](C)NC(=O)[C@H](CO)NC1=O [compound 188] (HELM PEPTIDE1{[ac].K.W.I.L.I.S.A.W.E}$PEPTIDE1,PEPTIDE1,2:R3-10:R3$$$V2.0) | 10 to 30 | < 7.5 | 97.6 | 0.7
CC[C@H](C)[C@H](NC(=O)[C@H](CC(C)C)NC(=O)[C@H](Cc1ccccc1)NC(=O)[C@H](Cc1c[nH]c2ccccc12)NC(=O)[C@H](CCSC)NC(=O)[C@H](CCCNC(=N)N)NC(=O)[C@H](CCC(N)=O)NC(=O)[C@@H](N)CCSC)C(=O)N[C@@H](CO)C(=O)N[C@@H](Cc1ccccc1)C(=O)N[C@@H](Cc1c[nH]c2ccccc12)C(N)=O [compound 74] (H-MQRMWFLISFW-NH2) | > 30 | > 30 | 91.2 | –
CC[C@H](C)[C@H](NC(=O)[C@H](CC(C)C)NC(=O)[C@H](Cc1ccccc1)NC(=O)[C@H](Cc1c[nH]c2ccccc12)NC(=O)[C@H](CCSC)NC(=O)[C@H](CCCNC(=N)N)NC(=O)[C@H](CO)NC(=O)[C@@H](N)CCSC)C(=O)N[C@@H](CO)C(=O)N[C@@H](COCc1ccccc1)C(=O)N[C@@H](Cc1c[nH]c2ccccc12)C(=O)O [compound 106] (H-MSRMWFLISS(Bn)W-OH) | 1 to 10 | 15 to 22.5 | 105 | 0.7
CC[C@H](C)[C@@H]1NC(=O)[C@H](CC(C)C)NC(=O)[C@H](Cc2ccccc2)NC(=O)[C@H](Cc2c[nH]c3ccccc23)NC(=O)[C@@H](N)CC(=O)NCCCC[C@@H](C(=O)NCC(=O)O)NC(=O)[C@H](Cc2c[nH]c3ccccc23)NC(=O)[C@H](C)NC(=O)[C@H](CS)NC1=O [compound 178] (HELM PEPTIDE1{D.W.F.L.I.C.A.W.K.G}$PEPTIDE1,PEPTIDE1,1:R3-9:R3$$$V2.0) | > 30 | < 7.5 | 91.8 | –
CC[C@H](C)[C@@H]1NC(=O)[C@H](CC(C)C)NC(=O)[C@H](C(C)(C)C)NC(=O)[C@H](Cc2c[nH]c3ccccc23)NC(=O)[C@@H](N)CCCCNC(=O)C[C@@H](C(=O)O)NC(=O)[C@H](Cc2c[nH]c3ccccc23)NC(=O)[C@H](C)NC(=O)[C@H](CO)NC1=O [compound 205] (HELM PEPTIDE1{K.W.[CC(C)(C)[C@H](N[*:1])C(=O)[*:2]].L.I.S.A.W.D}$PEPTIDE1,PEPTIDE1,1:R3-9:R3$$$V2.0) | > 30 | > 30 | 114 | –
CC[C@H](C)[C@H](NC(=O)[C@H](CC(C)C)NC(=O)[C@H](Cc1ccccc1)NC(=O)[C@H](Cc1c[nH]c2ccccc12)NC(=O)[C@H](CCSC)NC(=O)[C@H](CCCNC(=N)N)NC(=O)[C@H](CC(N)=O)NC(=O)[C@@H](N)CCSC)C(=O)N[C@@H](CO)C(=O)N[C@@H](Cc1ccccc1)C(=O)N[C@@H](Cc1c[nH]c2ccccc12)C(=O)NCC(=O)O [compound 61] (H-MNRMWFLISFWG-OH) | > 30 | 7.5 to 15 | 100 | –
CC[C@H](C)[C@H](NC(=O)[C@H](CC(C)C)NC(=O)[C@H](Cc1ccccc1)NC(=O)[C@H](Cc1c[nH]c2ccccc12)NC(=O)[C@H](CCSC)NC(C)=O)C(=O)N[C@@H](CS)C(=O)N[C@@H](Cc1ccccc1)C(=O)N[C@@H](Cc1c[nH]c2ccccc12)C(=O)NCCCC(=O)O [compound 197] (HELM PEPTIDE1{[ac].M.W.F.L.I.C.F.W.[O=C(O)CCCN[*:1]]}$$$$V2.0) | 0.4 to 1 | < 7.5 | 89.8 | 1.52
CC[C@H](C)[C@H](NC(=O)[C@H](CC(C)C)NC(=O)[C@H](Cc1ccccc1)NC(=O)[C@H](Cc1c[nH]c2ccccc12)NC(=O)[C@H](CCCCN)NC(=O)[C@H](CCCNC(=N)N)NC(=O)[C@H](CO)NC(=O)[C@@H](N)CCSC)C(=O)N[C@@H](CO)C(=O)N[C@@H](Cc1ccccc1)C(=O)N[C@@H](Cc1c[nH]c2ccccc12)C(=O)NCC(=O)O [compound 59] (H-MSRKWFLISFWG-OH) | > 30 | > 30 | 102 | –
CC[C@H](C)[C@H](NC(=O)[C@H](CC(C)C)NC(=O)[C@H](Cc1ccccc1)NC(=O)[C@@H](N)Cc1c[nH]c2ccccc12)C(=O)N[C@H](C(=O)N[C@H](C(=O)N[C@@H](Cc1c[nH]c2ccccc12)C(=O)O)[C@@H](C)O)[C@@H](C)O [compound 100] (H-WFLITTW-OH) | 1 to 10 | 7.5 to 15 | 102 | 2.8
CC[C@H](C)[C@H](NC(=O)[C@H](CC(C)C)NC(=O)[C@H](Cc1ccccc1)NC(=O)[C@H](Cc1c[nH]c2ccccc12)NC(=O)[C@H](CCSC)NC(=O)[C@H](CCCNC(=N)N)NC(=O)[C@H](CO)NC(=O)[C@@H](N)CCSC)C(=O)N[C@@H](CO)C(=O)N[C@@H](CO)C(=O)N[C@@H](Cc1c[nH]c2ccccc12)C(=O)O [compound 99] (H-MSRMWFLISSW-OH) | 1 to 10 | 22.5 to 30 | 97.3 | 0.7
CC[C@H](C)[C@H](NC(=O)[C@H](Cc1c[nH]c2ccccc12)NC(=O)[C@@H](N)CCSC)C(=O)NC(C)(CC(C)C)C(=O)N[C@H](C(=O)N[C@@H](CO)C(=O)N[C@@H](Cc1ccccc1)C(=O)N[C@@H](Cc1c[nH]c2ccccc12)C(=O)NCC(=O)O)[C@@H](C)CC (some centres unmarked) [compound 138] (HELM PEPTIDE1{M.W.I.[CC(C)CC(C)(N[*:1])C(=O)[*:2]].I.S.F.W.G}$$$$V2.0) | > 30 | > 30 | 106 | –
CC[C@H](C)[C@H](NC(=O)[C@H](CC(C)C)NC(=O)[C@@H](NC(=O)[C@H](Cc1c[nH]c2ccccc12)NC(=O)[C@@H](N)CCCCN)[C@@H](C)CC)C(=O)N[C@@H](CS)C(=O)N[C@@H](Cc1ccccc1)C(=O)N[C@@H](Cc1c[nH]c2ccccc12)C(=O)NCC(=O)O [compound 117] (H-KWILICFWG-OH) | > 30 | 15 to 22.5 | 138 | –
CC[C@H](C)[C@H](NC(=O)[C@H](CC(C)C)NC(=O)[C@H](Cc1ccccc1)NC(=O)[C@H](Cc1c[nH]c2ccccc12)NC(=O)[C@H](CCSC)NC(=O)[C@H](CCCNC(=N)N)NC(=O)[C@H](CO)NC(=O)[C@@H](N)Cc1ccc(O)cc1)C(=O)N[C@@H](CO)C(=O)N[C@@H](Cc1ccccc1)C(=O)N[C@@H](Cc1c[nH]c2ccccc12)C(N)=O [compound 82] (H-YSRMWFLISFW-NH2) | > 30 | > 30 | 84 | –
CC[C@H](C)[C@H](NC(=O)[C@H](CC(C)C)NC(=O)[C@H](Cc1ccccc1)NC(=O)[C@H](Cc1c[nH]c2ccccc12)NC(=O)[C@@H](N)CCSC)C(=O)N[C@@H](CO)C(=O)N[C@@H](Cc1ccccc1)C(=O)N[C@@H](C)C(=O)NCC(=O)O [compound 161] (H-MWFLISFAG-OH) | > 30 | 15 to 22.5 | 103 | –
